Among the test systems are DU-145; HCT-116; HT-29; Hs-578T; K562; KM12; LOX IMVI; M14; MDA-MB-231; NCI-H226; OVCAR-4; OVCAR-8; SF-295; SK-MEL-28; SK-OV-3; T47D; TK-10; UACC-257; HOP-62; SN12C.
Assay in all cases: NCI-60 cell line screen, 48 h

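Test compounds were applied to cells in 96-well plates for 48 hours at 5 doses. The concentration for 50% growth inhibition is given as GI50.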 The source made the active and inactive calls. Cut-off read from the data, not from the text of the source: active = GI50 up to about 1.1 µM and inactive = higher. Some results are limits rather than exact numbers.

On to `Clc1ccc(-c2cc3nc4ccccc4nc3o2)cc1`, for which the GI50 in the assay with DU-145 is > 100 µM (inactive); in the assay with HCT-116, > 100 µM (inactive); with HT-29 it was > 100 µM (inactive); in the assay on Hs-578T, 15.7 µM (inactive); in the assay on K562, > 100 µM (inactive); with KM12, > 100 µM (inactive). Also, the GI50 is > 100 µM (inactive) with LOX IMVI; > 100 µM (inactive) in the assay with M14; > 100 µM (inactive) in the assay on MDA-MB-231; > 100 µM (inactive) in the assay on NCI-H226; > 100 µM (inactive) with OVCAR-4; 32.6 µM (inactive) in the assay on OVCAR-8. In addition, the GI50 in the assay with SF-295 is 58.7 µM (inactive); in the assay with SK-MEL-28, > 100 µM (inactive); in the assay with SK-OV-3, 59.4 µM (inactive); in the assay with T47D, > 100 µM (inactive); with TK-10, 32.7 µM (inactive); with UACC-257, 34.8 µM (inactive).

Consider `COc1cc2c3c(c1O)C1(C=CC(=O)C=C1)CC3N(C)CC2` (stereo unspecified) [GLAZIOVINE], for which the GI50 with DU-145 is 13.2 µM (inactive); with HCT-116 it was 3.81 µM (inactive); with HOP-62, 13.1 µM (inactive); with HT-29 it was 8.95 µM (inactive); in the assay on Hs-578T, 14.4 µM (inactive); in the assay on K562 it was 5.2 µM (inactive). The GI50 is 4.48 µM (inactive) in the assay on KM12; 2.77 µM (inactive) with LOX IMVI; 12.1 µM (inactive) in the assay with M14; 4.86 µM (inactive) in the assay with MDA-MB-231; 22 µM (inactive) in the assay on NCI-H226; 5.97 µM (inactive) in the assay with OVCAR-4. The GI50 in the assay with OVCAR-8 is 10.4 µM (inactive); with SF-295, 12 µM (inactive); with SK-MEL-28, 13.2 µM (inactive); in the assay with SK-OV-3, 31.3 µM (inactive); in the assay with SN12C, 9.18 µM (inactive); in the assay with T47D, 11.7 µM (inactive). Besides, the figures for the GI50 in the assay with TK-10 and with UACC-257 were 21.6 µM (inactive) and 13.4 µM (inactive), respectively.

On to `CCN(CC)C1C(=O)NC1C#Cc1ccccc1` (stereo unspecified), for which the GI50 is > 100 µM (inactive) in the assay with DU-145; > 100 µM (inactive) in the assay on HCT-116; > 100 µM (inactive) with HOP-62; 48 µM (inactive) with HT-29; > 100 µM (inactive) with Hs-578T; 42.3 µM (inactive) with K562. The GI50 is > 100 µM (inactive) in the assay with KM12; 39.7 µM (inactive) in the assay with LOX IMVI; > 100 µM (inactive) in the assay on M14; > 100 µM (inactive) in the assay with MDA-MB-231; > 100 µM (inactive) in the assay with NCI-H226; > 100 µM (inactive) in the assay on OVCAR-4. The GI50 was > 100 µM (inactive) with OVCAR-8; > 100 µM (inactive) in the assay with SF-295; > 100 µM (inactive) in the assay on SK-MEL-28; > 100 µM (inactive) in the assay with SK-OV-3; > 100 µM (inactive) in the assay on SN12C; 84.7 µM (inactive) in the assay on T47D. The GI50 in the assay with TK-10 and with UACC-257 was > 100 µM (inactive) in each case.

Take `COc1ccc(N2C(=O)C3CC4=CC(=O)C[C@H]4[C@H]32)cc1` (stereo partly specified): the GI50 with DU-145 was 75.9 µM (inactive); in the assay with HCT-116 it was 20.7 µM (inactive); with HOP-62, 44.9 µM (inactive); with Hs-578T, > 100 µM (inactive); in the assay with K562 it was 64.9 µM (inactive); with KM12, 44 µM (inactive). The GI50 in the assay on LOX IMVI is 53.1 µM (inactive); with M14 it was > 100 µM (inactive); in the assay on MDA-MB-231 it was > 100 µM (inactive); in the assay on NCI-H226 it was 42.8 µM (inactive); in the assay on OVCAR-4 it was > 100 µM (inactive); with OVCAR-8 it was 49.4 µM (inactive). In addition, the GI50 is > 100 µM (inactive) with SF-295; > 100 µM (inactive) in the assay on SK-MEL-28; > 100 µM (inactive) with SK-OV-3; 29.4 µM (inactive) in the assay on SN12C; > 100 µM (inactive) in the assay with T47D; 58.7 µM (inactive) in the assay on TK-10. Moreover, in the assay with UACC-257, the GI50 is 64.9 µM (inactive).

As to `COc1ccc(C[C@H]2NC(=O)/C=C/C[C@@H]([C@H](C)[C@H]3O[C@@H]3c3ccccc3)OC(=O)[C@H](CC(C)C)OC(=O)[C@H](C)CNC2=O)cc1`, the GI50 with DU-145 is 2.96e-05 µM (active); with HCT-116 it was 1.57e-05 µM (active); in the assay on HOP-62 it was 2.47e-05 µM (active); in the assay with HT-29 it was 8.18e-06 µM (active); in the assay with Hs-578T, 1.01e-05 µM (active); in the assay with K562, 9.27e-06 µM (active). Besides, the GI50 is 3.93e-05 µM (active) in the assay on KM12; 1.74e-05 µM (active) in the assay with LOX IMVI; 1.72e-05 µM (active) in the assay with M14; 4.49e-05 µM (active) in the assay on MDA-MB-231; > 4.41e-05 µM (active) with NCI-H226; > 0.0001 µM (active) with OVCAR-4. Further, the GI50 in the assay on OVCAR-8 is 1.69e-05 µM (active); in the assay with SF-295, 1.07e-05 µM (active); in the assay with SK-MEL-28, 4.83e-05 µM (active); in the assay with SK-OV-3, 2.06e-05 µM (active); with SN12C, 3.94e-05 µM (active); in the assay with T47D it was > 0.0001 µM (active). Besides, the GI50 was > 0.0001 µM (active) in the assay with TK-10 and > 5.89e-05 µM (active) in the assay with UACC-257.

Turning to `Fc1ccc(C(OCCN2CCC3CCC(C2)N3C/C=C/c2cccnc2)c2ccc(F)cc2)cc1` (stereo unspecified), the GI50 in the assay on DU-145 was 15.8 µM (inactive); with HCT-116, 5.93 µM (inactive); in the assay with HOP-62 it was 14.2 µM (inactive); with HT-29 it was 3.44 µM (inactive); with Hs-578T, 12 µM (inactive); with KM12 it was 10.5 µM (inactive). The GI50 with LOX IMVI was 13.1 µM (inactive); with M14, 2.53 µM (inactive); with MDA-MB-231, 13.3 µM (inactive); with NCI-H226, 12.1 µM (inactive); in the assay on OVCAR-4 it was 12.6 µM (inactive); in the assay with OVCAR-8, 13 µM (inactive). For the same molecule, the GI50 was 9.23 µM (inactive) in the assay on SF-295; 2.24 µM (inactive) in the assay with SK-MEL-28; 14.7 µM (inactive) with SK-OV-3; 13.1 µM (inactive) in the assay with SN12C; 12.6 µM (inactive) in the assay on T47D; 11.5 µM (inactive) with TK-10. The GI50 in the assay with UACC-257 was 3.78 µM (inactive).

On to `O=C1CCCCC/C1=C\c1ccccc1`, for which the GI50 with DU-145, in the assay with HCT-116, in the assay on HOP-62, in the assay with HT-29, with Hs-578T and with K562 was > 100 µM (inactive) each time. Moreover, the GI50 in the assay with KM12 is > 100 µM (inactive); with LOX IMVI it was > 100 µM (inactive); with M14, > 100 µM (inactive); with MDA-MB-231, > 100 µM (inactive); in the assay on NCI-H226, 67.1 µM (inactive); in the assay with OVCAR-4, 67.6 µM (inactive). Also, the GI50 in the assay on SF-295, in the assay on SK-MEL-28, with SK-OV-3, in the assay with SN12C, with T47D and with TK-10 was > 100 µM (inactive) each time. Besides, in the assay with UACC-257, the GI50 is > 100 µM (inactive).

Regarding `NS(=O)(=O)c1ccc(NCc2nc3ccccc3[nH]2)cc1`, the GI50 in the assay with DU-145, in the assay with HCT-116, in the assay with HOP-62, in the assay on HT-29, in the assay on Hs-578T and in the assay with KM12 was > 100 µM (inactive) each time. The GI50 in the assay with LOX IMVI, in the assay with M14, in the assay with MDA-MB-231, in the assay with NCI-H226, with OVCAR-4 and with OVCAR-8 was > 100 µM (inactive) each time. The GI50 in the assay on SF-295, with SK-OV-3, in the assay with SN12C, in the assay on T47D, with TK-10 and with UACC-257 was > 100 µM (inactive) in each case.

`Cc1nnc2cc(C(=O)O)c3ccccc3n2c1=O`: the GI50 in the assay with DU-145, in the assay on HCT-116, with HOP-62, with HT-29, with Hs-578T and in the assay on K562 was > 10 µM (inactive) in each case. Further, the GI50 with LOX IMVI, with M14, in the assay on MDA-MB-231, in the assay with NCI-H226, with OVCAR-4 and with OVCAR-8 was > 10 µM (inactive) in each case. The GI50 in the assay with SF-295, in the assay on SK-MEL-28, in the assay with SK-OV-3, in the assay with SN12C, in the assay on T47D and with TK-10 was > 10 µM (inactive) in each case. Moreover, the GI50 in the assay with UACC-257 was > 10 µM (inactive).

Take `Cc1ccc([S+]([O-])(=Nc2ccccc2)C(C(C)C)C(C)(C)Cl)cc1` (stereo unspecified): the GI50 was > 50 µM (inactive) in the assay on DU-145; 16.9 µM (inactive) in the assay with HCT-116; > 50 µM (inactive) in the assay on HOP-62; 17.1 µM (inactive) in the assay on HT-29; 29.6 µM (inactive) in the assay with Hs-578T; 16.7 µM (inactive) in the assay on K562. Further, the GI50 in the assay with KM12 is 13.5 µM (inactive); in the assay on LOX IMVI it was 25.2 µM (inactive); with M14 it was 18.9 µM (inactive); with MDA-MB-231, 17.2 µM (inactive); with NCI-H226, 2.72 µM (inactive); in the assay on OVCAR-4, 22.2 µM (inactive). Also, the GI50 in the assay with OVCAR-8 is > 50 µM (inactive); in the assay with SF-295 it was 16.3 µM (inactive); with SK-OV-3, > 50 µM (inactive); with SN12C, 22.4 µM (inactive); with T47D it was 23.6 µM (inactive); in the assay with TK-10, 21.4 µM (inactive). For the same molecule, in the assay on UACC-257, the GI50 is 10.8 µM (inactive).
